Tests used:
[1] = Solubility remark in the HT-29 table; format: physicochemical; details: printed in the IC50 column of TABLE I
[2] = system: HT-29 human colon carcinoma cells; experiment: HT-29 tumor cell growth inhibition / cytotoxicity (Sulforhodamine B Assay); format: cell-based; details: 168 h, HT-29, seven days continuous exposure
Experimental: (§1) The compounds of this invention were assayed for their effect on the human colon carcinoma cell lines HT-29 and SW-480 obtained from ATCC (Rockville, Md.), representative of precancerous lesions to ascertain the degree of tumor growth inhibition following treatment with compounds of this invention. The cell line employed for these experiments is well characterized, and is used by the United States National Cancer Institute in their screening program for new anticancer drugs. Growth inhibition of this cell line is thought to be indicative of a benefit on precancerous lesions and neoplasms.
Tumor cell cytotoxicity was assessed using the Sulforhodamine B Assay. In this assay, HT-29 tumor cells were plated in 96-well plates and treated with drug-containing media for seven days (continuous exposure). At the end of the exposure period, the cell were fixed and stained with sulforhodamine B (a pink fluorescent dye). The dye was then solubilized, and the optical density of the resulting pink solution determined on a 96-well plate reader. The mean dye intensity of the treated wells was then divided by the mean dye intensity in the control wells (6 wells of each) to determine the effect of the drug on the cells. Dye intensity is proportional to the number of cells or amount of protein per well. The resultant "percent of control" value then represents the degree of growth inhibition caused by the drug.
For each experiment, an IC50 value was determined and used for comparative purposes. This value is equivalent to the concentration of drug needed to inhibit tumor cell growth by 50%. IC50 values were obtained graphically by connecting the mean values for each drug concentration tested. Each experiment included at least six wells per drug concentration. Concentration was plotted on a log scale on the X-axis.

[3] = system: SW-480 colon adenocarcinoma cells; experiment: Apoptosis: DNA fragmentation assay (Cell Death Detection ELISA plus); format: cell-based; details: Homo sapiens, SW480, SW-480, 48 hrs; for EC50: apoptosis
Experimental: as §1
Apoptosis was measured based on the amount of fragmented DNA contained in cell lysates. Briefly, SW-480 colon adenocarcinoma cells were plated at a density of 10K cells/well in 180 μl to 96-well microtitre plates ("MTP"), and incubated for 24 hrs. Cells were then treated with 20 μl aliquots appropriately diluted compound, and allowed to incubate for 48 hrs.
After the incubation, samples were prepared according to the following steps. […] Samples were analyzed immediately, because storage at 4 C or […] reduces the ELISA-signals.
Samples were then processed according to a DNA fragmentation assay protocol, and dose-response curves were generated based on optical density readings. […] The assay is based on a quantitative sandwich-enzyme-immunoassay-principle using mouse monoclonal antibodies directed against DNA and histones, respectively. […]
According to the vendor, the assay works in the following fashion. […] After removal of unbound antibodies by a washing step, the amount of nucleosomes is quantified by the POD retained in the immunocomplex. POD is determined photometrically with ABTS® (2,2'-Azino-di[3-ethylbenzthiazolin-sulfonat])* as substrate.
Fold stimulation (FS=ODmax/ODveh), an indicator of apoptotic response, was determined for each compound data analysis software, or by estimates based on the effective concentration range of each compound (ECR=min. effective dose-min. dose to peak effect).

polyps = details: when the patient take the drug; cited from earlier work
[4] = sulfoxide itself, believed; cited from earlier work
prostaglandin synthesis = details: acknowledged / regarded; cited from earlier work

For `CC1=C(CNC(=O)NC(C)C)c2cc(F)ccc2/C1=C\c1ccc(S(C)(=O)=O)cc1` [Example 21, (Z)-N-{[5-Fluoro-2-methyl-1-(p-methylsulfonylbenzylidene)inden-3-yl]-methyl}-N'-isopropyl urea], the “solubility (reason for IC50 N/A)” value [1] was “not very soluble”.
`CC1=C(CNC(=O)NCCCN(C)C)c2cc(F)ccc2/C1=C\c1ccc(S(C)(=O)=O)cc1` [Example 22, (Z)-N-{[5-Fluoro-2-methyl-1-(p-methylsulfonyl-benzylidene)-inden-3-yl]-methyl}-N'-dimethylaminopropyl urea] showed an IC50 [2] of 4.4 to 5.4 µM and an EC50 [3] of 75 µM.
`CC1=C(CNC(=O)NCc2ccccc2)c2cc(F)ccc2/C1=C\c1ccc(S(C)(=O)=O)cc1` [Example 23, (Z)-N-{[5-Fluoro-2-methyl-1-(p-methylsulfonyl-benzylidene)-inden-3-yl]-methyl}-N'-benzyl urea] gave an IC50 [2] of 1.6 to 3.2 µM.
In the case of `CC1=C(CNC(=O)NCC(N)=O)c2cc(F)ccc2/C1=C\c1ccc(S(C)(=O)=O)cc1` [Example 24, (Z)-N-{[5-Fluoro-2-methyl-1-(p-methylsulfonyl-benzylidene)-inden-3-yl]-methyl}-N'-glycinamide urea], the “solubility (reason for IC50 N/A)” value [1] is reported as “not very soluble”.
`CC1=C(CNC(=O)OC(C)C)c2cc(F)ccc2/C1=C\c1ccc(S(C)(=O)=O)cc1` [Example 25, (Z)-N-{[5-Fluoro-2-methyl-1-(p-methylsulfonyl-benzylidene)-inden-3-yl]-methyl}-O-isopropyl urethane] gave an IC50 [2] of 3.2 to 4 µM.
`COC(=O)NCC1=C(C)/C(=C/c2ccc(S(C)(=O)=O)cc2)c2ccc(F)cc21` [Example 26, (Z)-N-{[5-Fluoro-2-methyl-1-(p-methylsulfonyl-benzylidene)-inden-3-yl]-methyl}-O-methyl urethane] showed an IC50 [2] of 4.5 to 8 µM, a maximal fold induction ([3]; FS=ODmax/ODveh, read-out: Fold Stimulation) of 5 to 6.8 and an EC50 [3] of 250 µM.
With `CCOC(=O)NCC1=C(C)/C(=C/c2ccc(S(C)(=O)=O)cc2)c2ccc(F)cc21` [Example 27, (Z)-N-{[5-Fluoro-2-methyl-1-(p-methylsulfonyl-benzylidene)-inden-3-yl]-methyl}-O-ethyl urethane] the IC50 [2] was 4.1 µM.
`COCCOC(=O)NCC1=C(C)/C(=C/c2ccc(S(C)(=O)=O)cc2)c2ccc(F)cc21` [Example 28, (Z)-N-{[5-Fluoro-2-methyl-1-(p-methylsulfonyl-benzylidene)-inden-3-yl]-methyl}-O-methoxyethyl urethane] showed an IC50 [2] of 7.1 to 11 µM.
In the case of `CC1=C(CC(=O)O)c2cc(F)ccc2/C1=C\c1ccc([S+](C)[O-])cc1` (stereo not drawn) [Sulindac, (Z)-5-fluoro-2-methyl-1-(4-methylsulfinylbenzylidene)inden-3-ylacetic acid], the effect on polyps (polyps) is listed as “Polyps virtually disappear” and the “activity as an anti-arthritic agent” value [4] is listed as “inactive”.
In the case of `CSc1ccc(/C=C2/C(C)=C(CC(=O)O)c3cc(F)ccc32)cc1` [sulfide], the “activity as a prostaglandin (synthesis) inhibitor” value (prostaglandin synthesis) is given as “active moiety as a prostaglandin inhibitor”.
For `CC1=C(CC(=O)O)c2cc(F)ccc2/C1=C\c1ccc(S(C)(=O)=O)cc1` [sulfone], the “activity as a prostaglandin (synthesis) inhibitor” value (prostaglandin synthesis) is given as “inactive”.

Source: US6300346A, “Indenyl hydroxamic acids, (hydroxy) ureas and urethanes for treating patients with precancerous lesions” (Cell Pathways, Inc., priority 2000, dated 2001)
